Source: US7541336B2 (priority 2002, dated 2009)

Assays:
[1] = biological target: ryanodine receptor of mouse origin (Mus musculus, UniProt E9PZQ0); assay: Ryanodine binding inhibition, crude mammalian ryanodine receptor
Description: (2) Preparation of Mammalian Crude Ryanodine Receptor Fraction was Performed as Follows.
Muscles of the hind legs of ICR mouse were finely cut, and 3.0 g thereof was homogenized at 0° C., 1,000 rpm for 3×30 sec using glass homogenizer in 15 ml of buffer B (20 mM Tris-HCl buffer (pH 8.0) containing 4 μg/ml aprotinin and 4 μg/ml leupeptin). The homogenate was transferred into the micro test tube, and the glass homogenizer was also washed with the 7.5 ml of buffer B, and the washed solution was also added to the micro test tube, which was stirred, then centrifuged by using ultracentrifuge cooled at 4° C., 25,000×g for 40 min. 2.4 ml of the buffer B was added to the obtained precipitate and suspended to obtain the crude ryanodine receptor fraction of mouse origin.
(4) Binding Activity of Crude Mammalian Ryanodine Receptor was Assayed aAs Follows.
70 μl of the buffer A, 10 μl of ethanol solution of 0.1 nM ryanodine and 10 μl of 20 nM [9,21-^3H] (N) ryanodine were added into the 96 well microplate (Corning Inc. the U.S.). 10 μl of crude ryanodine receptor fraction of mouse origin was added to initiate the reaction, and shaken at room temperature for 90 min. by using microplate mixer. […] Radioactivity was measured by measuring fluorescence intensity of the filter with using scintillation counter (Wallac Inc. the U.S., MicroBeta™ TriLux).

Caenorhabditis elegans = assay: Anti-nematode activity, 96 well plate; assay type: in vivo; details: at 20 μg/ml, observed after 2 days under microscope
Description: (§1) Methanol solution of FKI-1033 substance was added into 96 well plate (Corning Inc., the U.S.), removed off methanol in vacuo, added 250 μl of test medium (lecithin 0.01%, sodium hydrogen carbonate 7.5 mM, potassium chloride 7.5 mM, calcium chloride dihydrate 7.5 mM and magnesium sulfate heptahydrate 7.5 mM) and shaken for 15 min. 50 μl of buffer containing several nauplii of Artemia salina, which were hatched off in the buffer, was added thereto, and about ten nematodes, Caenorhabditis elegans, which were bred on agar medium for growth of nematode, were added thereto.

Solubility in solvent = assay type: physicochemical
[2] = test system: nauplii of Artemia salina; assay: Anti-arthropod activity, 96 well plate; assay type: in vivo; details: at 20 μg/ml, observed after 2 days under microscope
Description: as §1

[3] = biological target: T1, ryanodine receptor of Periplaneta americana origin (Periplaneta americana, UniProt A0ABQ8T696); assay: Ryanodine binding inhibition, crude ryanodine receptor of Periplaneta americana
T1 sequence (A0ABQ8T696 1-1387): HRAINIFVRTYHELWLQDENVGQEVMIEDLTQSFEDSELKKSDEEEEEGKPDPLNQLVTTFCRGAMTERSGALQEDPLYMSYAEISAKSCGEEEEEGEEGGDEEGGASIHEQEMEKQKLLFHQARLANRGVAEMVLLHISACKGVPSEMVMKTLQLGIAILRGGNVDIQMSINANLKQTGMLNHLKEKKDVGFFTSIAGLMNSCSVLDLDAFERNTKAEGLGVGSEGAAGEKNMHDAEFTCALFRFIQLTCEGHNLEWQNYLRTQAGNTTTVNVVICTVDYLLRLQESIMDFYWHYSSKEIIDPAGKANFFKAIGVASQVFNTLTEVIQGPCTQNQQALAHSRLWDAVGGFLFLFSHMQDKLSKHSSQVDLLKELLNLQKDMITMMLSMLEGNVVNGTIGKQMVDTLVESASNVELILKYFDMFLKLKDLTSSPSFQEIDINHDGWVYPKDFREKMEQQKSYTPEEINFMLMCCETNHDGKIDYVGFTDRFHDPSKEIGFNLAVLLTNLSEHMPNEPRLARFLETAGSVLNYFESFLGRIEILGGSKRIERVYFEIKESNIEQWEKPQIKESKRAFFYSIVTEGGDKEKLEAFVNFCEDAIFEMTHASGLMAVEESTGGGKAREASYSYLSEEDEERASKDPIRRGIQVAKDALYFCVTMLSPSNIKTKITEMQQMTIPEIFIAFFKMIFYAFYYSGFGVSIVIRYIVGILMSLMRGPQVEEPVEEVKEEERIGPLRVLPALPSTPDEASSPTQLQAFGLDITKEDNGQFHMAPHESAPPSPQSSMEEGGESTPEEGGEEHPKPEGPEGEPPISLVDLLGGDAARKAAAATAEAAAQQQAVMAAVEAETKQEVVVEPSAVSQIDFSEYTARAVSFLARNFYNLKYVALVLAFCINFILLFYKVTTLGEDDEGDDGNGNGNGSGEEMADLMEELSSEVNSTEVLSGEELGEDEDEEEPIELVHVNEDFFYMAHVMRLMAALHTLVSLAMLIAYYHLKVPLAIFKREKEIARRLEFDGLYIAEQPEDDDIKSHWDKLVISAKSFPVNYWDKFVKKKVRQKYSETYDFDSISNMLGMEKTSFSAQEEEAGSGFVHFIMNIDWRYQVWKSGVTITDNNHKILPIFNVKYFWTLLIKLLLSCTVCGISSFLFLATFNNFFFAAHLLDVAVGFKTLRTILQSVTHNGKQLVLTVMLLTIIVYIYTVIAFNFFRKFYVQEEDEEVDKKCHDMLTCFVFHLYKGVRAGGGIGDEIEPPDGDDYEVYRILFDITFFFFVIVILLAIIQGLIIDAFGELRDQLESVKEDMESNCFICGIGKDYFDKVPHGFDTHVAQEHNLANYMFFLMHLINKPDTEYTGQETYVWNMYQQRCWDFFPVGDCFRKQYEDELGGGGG
Description: (1) Preparation of the Crude Ryanodine Receptor Fraction of the Insect was Performed as Follows.
The thorax and legs of ten adult insects of Periplaneta americana were frozen with liquid nitrogen and finely cut, and homogenized three times in 15 ml of 50 mM Tris HCl buffer (pH 7.4) containing 4 μg/ml leupeptin and 3 μg/ml pepstatin by using a knife homogenizer at 0° C., 24,000 rpm for 30 sec. The homogenate was filtered using double layered cotton cloth and the filtrate was centrifuged at 4° C., 3,000 rpm for 20 minutes. The obtained supernatant was centrifuged at 4° C., 30,000 rpm for 30 minutes and the precipitate suspended in 1 ml of 20 mM Tris HCl buffer (pH 8.0) containing 0.3 M sucrose, 500 μM calcium chloride and 1.5 M potassium chloride and homogenized with glass potter to obtain crude ryanodine receptor fraction. The crude ryanodine receptor fraction was used by diluting about 7 times with the buffer A (20 mM Tris-HCl buffer (pH 8.0) containing 4 μg/ml aprotinin, 4 μgμml leupeptin, 0.3 M sucrose and 500 μM calcium chloride) immediately before use. […]
70 μl of the buffer A, 10 μl of ethanol solution of 0.1 nM ryanodine and 10 μl of 20 nM [9,21-^3H] […] Radioactivity was measured by measuring fluorescence intensity of the filter with using scintillation counter (Wallac Inc. the U.S., MicroBeta™ TriLux)

ryanodine receptor of mouse origin, sequence (E9PZQ0 whole entry): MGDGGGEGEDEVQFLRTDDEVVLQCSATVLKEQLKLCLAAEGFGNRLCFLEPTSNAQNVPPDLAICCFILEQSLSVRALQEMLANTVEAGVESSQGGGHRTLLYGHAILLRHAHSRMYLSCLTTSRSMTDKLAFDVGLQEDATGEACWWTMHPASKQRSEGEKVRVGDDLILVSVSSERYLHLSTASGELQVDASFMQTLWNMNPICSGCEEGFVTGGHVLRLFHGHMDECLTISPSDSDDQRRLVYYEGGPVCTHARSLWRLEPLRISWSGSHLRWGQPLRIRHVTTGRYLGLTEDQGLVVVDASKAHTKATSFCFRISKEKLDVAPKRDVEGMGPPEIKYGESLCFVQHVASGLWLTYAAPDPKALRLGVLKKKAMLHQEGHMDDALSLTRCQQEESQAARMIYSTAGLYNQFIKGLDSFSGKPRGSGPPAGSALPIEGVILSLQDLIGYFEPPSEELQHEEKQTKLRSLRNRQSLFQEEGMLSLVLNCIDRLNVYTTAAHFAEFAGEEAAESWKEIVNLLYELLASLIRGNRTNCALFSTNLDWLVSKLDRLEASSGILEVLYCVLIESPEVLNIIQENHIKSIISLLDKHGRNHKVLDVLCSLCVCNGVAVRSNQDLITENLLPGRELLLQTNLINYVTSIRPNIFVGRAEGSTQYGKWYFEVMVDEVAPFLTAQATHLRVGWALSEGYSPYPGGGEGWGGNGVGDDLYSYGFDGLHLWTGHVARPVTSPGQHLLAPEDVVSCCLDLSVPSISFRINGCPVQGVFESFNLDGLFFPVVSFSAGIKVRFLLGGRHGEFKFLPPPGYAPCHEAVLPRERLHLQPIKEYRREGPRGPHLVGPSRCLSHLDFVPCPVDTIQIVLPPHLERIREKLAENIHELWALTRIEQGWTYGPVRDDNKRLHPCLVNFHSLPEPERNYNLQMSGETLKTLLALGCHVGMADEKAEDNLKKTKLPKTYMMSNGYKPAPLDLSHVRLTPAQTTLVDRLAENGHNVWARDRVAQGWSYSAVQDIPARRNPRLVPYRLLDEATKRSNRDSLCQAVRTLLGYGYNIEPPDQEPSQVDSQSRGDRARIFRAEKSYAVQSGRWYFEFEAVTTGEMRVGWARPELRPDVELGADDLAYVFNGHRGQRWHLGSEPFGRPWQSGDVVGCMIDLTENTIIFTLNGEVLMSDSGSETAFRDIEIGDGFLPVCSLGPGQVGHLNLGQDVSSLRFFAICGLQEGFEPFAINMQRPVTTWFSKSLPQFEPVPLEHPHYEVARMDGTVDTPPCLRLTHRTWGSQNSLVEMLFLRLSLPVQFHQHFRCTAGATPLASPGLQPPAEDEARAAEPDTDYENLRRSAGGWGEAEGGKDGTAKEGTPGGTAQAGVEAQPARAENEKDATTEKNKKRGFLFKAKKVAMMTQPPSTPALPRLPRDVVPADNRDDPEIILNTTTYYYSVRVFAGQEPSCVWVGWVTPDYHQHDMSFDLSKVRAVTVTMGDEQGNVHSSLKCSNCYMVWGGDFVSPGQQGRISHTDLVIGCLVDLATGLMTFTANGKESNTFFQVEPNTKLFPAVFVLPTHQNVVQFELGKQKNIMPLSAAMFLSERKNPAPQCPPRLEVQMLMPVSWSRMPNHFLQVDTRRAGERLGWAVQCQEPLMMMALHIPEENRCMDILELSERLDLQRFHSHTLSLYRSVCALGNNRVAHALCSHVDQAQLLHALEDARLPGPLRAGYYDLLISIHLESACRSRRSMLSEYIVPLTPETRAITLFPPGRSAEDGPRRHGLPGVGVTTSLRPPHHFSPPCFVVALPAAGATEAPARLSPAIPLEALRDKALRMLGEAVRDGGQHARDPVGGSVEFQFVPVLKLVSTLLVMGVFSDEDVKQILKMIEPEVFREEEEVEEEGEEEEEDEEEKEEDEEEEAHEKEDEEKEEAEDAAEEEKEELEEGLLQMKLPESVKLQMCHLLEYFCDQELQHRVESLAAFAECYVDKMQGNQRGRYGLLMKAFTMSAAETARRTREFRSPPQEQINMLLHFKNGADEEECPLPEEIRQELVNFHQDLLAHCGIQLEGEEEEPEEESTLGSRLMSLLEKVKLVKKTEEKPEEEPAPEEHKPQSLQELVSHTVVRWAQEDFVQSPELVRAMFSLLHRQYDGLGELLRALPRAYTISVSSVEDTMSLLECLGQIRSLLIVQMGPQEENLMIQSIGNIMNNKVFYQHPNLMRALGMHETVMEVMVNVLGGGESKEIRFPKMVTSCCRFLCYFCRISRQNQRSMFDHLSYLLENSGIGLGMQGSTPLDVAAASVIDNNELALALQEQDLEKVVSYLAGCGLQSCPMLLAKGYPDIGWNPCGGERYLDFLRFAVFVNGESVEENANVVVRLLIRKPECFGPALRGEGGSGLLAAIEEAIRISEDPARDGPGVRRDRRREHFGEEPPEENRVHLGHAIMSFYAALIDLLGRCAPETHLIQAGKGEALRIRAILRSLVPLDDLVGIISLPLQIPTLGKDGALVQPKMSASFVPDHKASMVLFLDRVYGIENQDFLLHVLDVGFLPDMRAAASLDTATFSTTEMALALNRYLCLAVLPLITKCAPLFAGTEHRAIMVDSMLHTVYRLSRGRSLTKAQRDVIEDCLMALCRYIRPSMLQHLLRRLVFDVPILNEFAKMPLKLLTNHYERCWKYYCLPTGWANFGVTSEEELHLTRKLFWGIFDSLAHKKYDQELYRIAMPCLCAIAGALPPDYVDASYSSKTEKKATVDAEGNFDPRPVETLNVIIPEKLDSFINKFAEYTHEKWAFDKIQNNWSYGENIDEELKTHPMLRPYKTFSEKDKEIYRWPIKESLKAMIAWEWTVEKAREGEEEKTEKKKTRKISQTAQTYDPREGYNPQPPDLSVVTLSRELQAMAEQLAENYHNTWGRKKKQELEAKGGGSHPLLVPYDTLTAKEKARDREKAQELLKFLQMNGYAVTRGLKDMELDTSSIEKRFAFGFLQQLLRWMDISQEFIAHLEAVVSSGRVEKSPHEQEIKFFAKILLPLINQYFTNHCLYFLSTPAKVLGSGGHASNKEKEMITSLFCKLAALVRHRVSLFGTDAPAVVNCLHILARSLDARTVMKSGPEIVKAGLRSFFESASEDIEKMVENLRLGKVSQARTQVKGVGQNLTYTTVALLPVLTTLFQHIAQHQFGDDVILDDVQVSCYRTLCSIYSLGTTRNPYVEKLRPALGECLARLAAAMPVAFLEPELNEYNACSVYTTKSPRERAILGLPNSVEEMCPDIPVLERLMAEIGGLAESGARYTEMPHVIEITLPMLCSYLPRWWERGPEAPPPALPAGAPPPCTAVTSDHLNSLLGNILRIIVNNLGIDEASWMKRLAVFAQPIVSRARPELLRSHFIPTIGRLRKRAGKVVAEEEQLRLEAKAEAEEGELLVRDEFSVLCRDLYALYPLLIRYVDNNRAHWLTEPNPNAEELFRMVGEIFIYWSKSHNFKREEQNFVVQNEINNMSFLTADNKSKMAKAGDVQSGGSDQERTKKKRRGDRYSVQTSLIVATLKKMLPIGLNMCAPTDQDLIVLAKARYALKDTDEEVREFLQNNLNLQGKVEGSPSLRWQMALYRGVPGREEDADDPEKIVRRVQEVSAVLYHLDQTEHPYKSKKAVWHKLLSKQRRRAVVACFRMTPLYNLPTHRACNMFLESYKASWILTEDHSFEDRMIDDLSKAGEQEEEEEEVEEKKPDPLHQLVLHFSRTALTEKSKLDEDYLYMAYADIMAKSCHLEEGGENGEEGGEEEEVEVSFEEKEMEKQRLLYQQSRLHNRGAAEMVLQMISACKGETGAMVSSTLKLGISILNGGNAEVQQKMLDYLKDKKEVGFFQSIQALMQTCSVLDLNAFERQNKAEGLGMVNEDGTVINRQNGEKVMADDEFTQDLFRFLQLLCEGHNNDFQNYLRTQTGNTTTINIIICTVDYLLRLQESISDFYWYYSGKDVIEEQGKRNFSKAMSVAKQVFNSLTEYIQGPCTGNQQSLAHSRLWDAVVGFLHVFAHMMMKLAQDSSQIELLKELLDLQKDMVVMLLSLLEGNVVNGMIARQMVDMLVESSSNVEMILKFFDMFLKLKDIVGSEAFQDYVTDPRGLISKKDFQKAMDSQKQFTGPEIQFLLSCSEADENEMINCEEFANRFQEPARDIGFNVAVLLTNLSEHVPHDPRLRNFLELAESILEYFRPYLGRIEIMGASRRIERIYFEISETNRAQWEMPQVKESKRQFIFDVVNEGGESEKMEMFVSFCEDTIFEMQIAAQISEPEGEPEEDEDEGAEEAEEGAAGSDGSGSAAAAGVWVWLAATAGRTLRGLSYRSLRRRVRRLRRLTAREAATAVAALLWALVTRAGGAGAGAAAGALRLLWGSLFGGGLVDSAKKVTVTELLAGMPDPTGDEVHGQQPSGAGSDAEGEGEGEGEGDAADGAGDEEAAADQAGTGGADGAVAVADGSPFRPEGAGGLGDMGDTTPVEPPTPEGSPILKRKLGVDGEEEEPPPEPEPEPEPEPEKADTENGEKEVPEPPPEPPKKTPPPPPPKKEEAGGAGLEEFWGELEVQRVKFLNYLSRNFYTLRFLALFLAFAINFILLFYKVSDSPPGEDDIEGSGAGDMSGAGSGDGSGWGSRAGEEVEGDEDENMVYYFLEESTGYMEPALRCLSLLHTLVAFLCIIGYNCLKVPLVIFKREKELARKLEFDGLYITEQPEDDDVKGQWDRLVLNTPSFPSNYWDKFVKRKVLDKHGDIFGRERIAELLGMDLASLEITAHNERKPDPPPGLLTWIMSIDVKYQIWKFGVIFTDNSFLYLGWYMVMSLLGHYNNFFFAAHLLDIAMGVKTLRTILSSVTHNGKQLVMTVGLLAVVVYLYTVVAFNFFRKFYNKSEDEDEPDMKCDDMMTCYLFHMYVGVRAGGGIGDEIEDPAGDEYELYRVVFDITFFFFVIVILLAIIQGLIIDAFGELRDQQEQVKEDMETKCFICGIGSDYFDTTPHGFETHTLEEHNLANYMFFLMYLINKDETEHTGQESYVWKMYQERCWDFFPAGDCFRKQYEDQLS

Structure (SMILES): CCCCCC1OC(=O)C(C)N(C)C(=O)C(CCCCC)OC(=O)C(C)N(C)C(=O)C(CCCCC)OC(=O)C(C)N(C)C(=O)C(CCCCC)OC(=O)C(C)N(C)C1=O (stereo not shown) [FKI-1033 substance]
- IC50 [1]: 53.9 µM
- growth inhibition of the nematodes (Caenorhabditis elegans) (Caenorhabditis elegans): inhibited growth
- Solubility in solvent (Solubility in solvent; methanol, ethanol, ethyl acetate and chloroform): Soluble
- Solubility in solvent (Solubility in solvent; water and n-hexane): Hardly soluble
- growth inhibition of the arthropods (Artemia salina) [2]: inhibited growth
- potency of ryanodine binding inhibition against the insect ryanodine receptor versus the mammalian ryanodine receptor ([3]; insect (Periplaneta americana) vs mammalian (mouse) receptor): more than ten times potent
- IC50 ([3]; read-out: ryanodine binding inhibition activity, IC50, crude ryanodine receptor fraction of Periplaneta americana, [9,21-3H](N) ryanodine, room temperature 90 min): 4.2 µM
